One experiment deals with RS4;11 cells. The experiment can be described thus: Cell viability assay (CellTiter-Glo) in RS4;11 cells. It is filed as cell-based. Particulars: Homo sapiens, 72 h; RS4;11 ALL cells treated for three days; read-out: cell viability inhibition IC50. In short, it runs like this:
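Three-day compound treatment of RS4;11 ALL cells (5000/well, 3-fold dilution series of 8 or 12 points), with IC50 from a nonlinear least-squares fit to CellTiter-Glo viability data.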
A general note: ATP-based viability assays read luminescence as a measure of living cells.
Consider `O=C1CCC(N2C(=O)c3ccc(NCCCCCCCC(=O)N4CCC(n5cc(-c6cnc7cccc(-c8cc(F)c(CN9CCOCC9)c(F)c8)c7n6)cn5)CC4)cc3C2=O)C(=O)N1` (centres unmarked) [JA-187, 5-((8-(4-(4-(8-(3,5-difluoro-4-(morpholinomethyl)phenyl)quinoxalin-2-yl)-1H-pyrazol-1-yl)piperidin-1-yl)-8-oxooctyl)amino)-2-(2,6-dioxopiperidin-3-yl)isoindoline-1,3-dione], for which the IC50 (in general, the point on the concentration scale where inhibition reaches its midpoint) is less than 100 nM.

The experiment is the same for the next values; noted with them: Homo sapiens, 72 h; RS4;11 cells; cell viability, 3 days, CellTiter-Glo; read-out: IC50.
Consider `Cc1ncsc1-c1ccc(CNC(=O)[C@@H]2C[C@@H](O)CN2C(=O)[C@@H](NC(=O)CCOCCOCCOCCNC(=O)CN2CCN(c3ccc(Nc4nc5cccc(-c6ccc(S(C)(=O)=O)cc6)n5n4)cc3)CC2)C(C)(C)C)cc1` [JA-137, (2S,4R)-1-((S)-17-(tert-Butyl)-1-(4-(4-((5-(4-(methylsulfonyl)phenyl)-[1,2,4]triazolo[1,5-a]pyridin-2-yl)amino)phenyl)piperazin-1-yl)-2,15-dioxo-6,9,12-trioxa-3,16-diazaoctadecan-18-oyl)-4-hydroxy-N-(4-(4-methylthiazol-5-yl)benzyl)pyrrolidine-2-carboxamide], for which the IC50 was greater than 10000 nM.
The same measure, in the same setting: to `Cc1ncsc1-c1ccc(CNC(=O)[C@@H]2C[C@@H](O)CN2C(=O)[C@@H](NC(=O)CCCCCCCCCCNC(=O)CN2CCC(n3cc(-c4cnc5cccc(-c6cc(F)c(CN7CCOCC7)c(F)c6)c5n4)cn3)CC2)C(C)(C)C)cc1` [JA-150, (2S,4R)-1-((S)-2-(11-(2-(4-(4-(8-(3,5-Difluoro-4-(morpholinomethyl)phenyl)quinoxalin-2-yl)-1H-pyrazol-1-yl)piperidin-1-yl)acetamido)undecanamido)-3,3-dimethylbutanoyl)-4-hydroxy-N-(4-(4-methylthiazol-5-yl)benzyl)pyrrolidine-2-carboxamide] belongs 2250 nM; to `Cc1ncsc1-c1ccc(CNC(=O)[C@@H]2C[C@@H](O)CN2C(=O)[C@@H](NC(=O)CCCCC(=O)N2CCC(n3cc(-c4cnc5cccc(-c6cc(F)c(CN7CCOCC7)c(F)c6)c5n4)cn3)CC2)C(C)(C)C)cc1` [JA-041, (2S,4R)-1-[(2S)-2-[[6-[4-[4-[8-[3,5-Difluoro-4-(morpholinomethyl)phenyl]quinoxalin-2-yl]pyrazol-1-yl]-1-piperidyl]-6-oxo-hexanoyl]amino]-3,3-dimethyl-butanoyl]-4-hydroxy-N-[[4-(4-methylthiazol-5-yl)phenyl]methyl]pyrrolidine-2-carboxamide], greater than 10000 nM.
With `O=C1CCC(N2C(=O)c3ccc(NCCCCCCCC(=O)N4CCC(n5cc(-c6cnc7cccc(-c8cc(F)c(CN9CCOCC9)c(F)c8)c7n6)cn5)CC4)cc3C2=O)C(=O)N1` (centres unmarked) [JA-187, 5-((8-(4-(4-(8-(3,5-difluoro-4-(morpholinomethyl)phenyl)quinoxalin-2-yl)-1H-pyrazol-1-yl)piperidin-1-yl)-8-oxooctyl)amino)-2-(2,6-dioxopiperidin-3-yl)isoindoline-1,3-dione], the IC50 amounted to 54.4 nM.
Consider `Cc1cnc(Nc2ccc(N3CCN(C(=O)CCOCCOCCOCCOCCNc4ccc5c(c4)C(=O)N(C4CCC(=O)NC4=O)C5=O)CC3)cc2)nc1Nc1cccc(S(=O)(=O)NC(C)(C)C)c1` (centres unmarked) [JA-235, N-(tert-butyl)-3-((2-((4-(4-(1-((2-(2,6-dioxopiperidin-3-yl)-1,3-dioxoisoindolin-5-yl)amino)-3,6,9,12-tetraoxapentadecan-15-oyl)piperazin-1-yl)phenyl)amino)-5-methylpyrimidin-4-yl)amino)benzenesulfonamide], for which the IC50 came to 848 nM.
For the compound `O=C(CN1CCC(n2cc(-c3cnc4cccc(-c5cc(F)c(CN6CCOCC6)c(F)c5)c4n3)cn2)CC1)NCCCCCCNc1ccc2c(c1)C(=O)N(C1CCC(=O)NC1=O)C2=O` (centres unmarked) [JA-178, 2-(4-(4-(8-(3,5-Difluoro-4-(morpholinomethyl)phenyl)quinoxalin-2-yl)-1H-pyrazol-1-yl)piperidin-1-yl)-N-(6-((2-(2,6-dioxopiperidin-3-yl)-1,3-dioxoisoindolin-5-yl)amino)hexyl)acetamide], the IC50 amounted to 1900 nM.
On to `CS(=O)(=O)c1ccc(-c2cccc3nc(Nc4ccc(N5CCN(C(=O)CCOCCOCCOCCOCCNc6ccc7c(c6)C(=O)N(C6CCC(=O)NC6=O)C7=O)CC5)cc4)nn23)cc1` (centres unmarked) [JA-197, 2-(2,6-Dioxopiperidin-3-yl)-5-((15-(4-(4-((5-(4-(methylsulfonyl)phenyl)-[1,2,4]triazolo[1,5-a]pyridin-2-yl)amino)phenyl)piperazin-1-yl)-15-oxo-3,6,9,12-tetraoxapentadecyl)amino)isoindoline-1,3-dione], for which the IC50 stood at 5550 nM.

Source of the values: patent US20230093099A1, “COMPOUNDS AND METHODS OF TREATING CANCERS” (CULLGEN (SHANGHAI), INC., priority 2019, published 2023).
